In brackets after ≈: the same amount, converted by molar mass.
Assays:
Assay in all cases: in vitro antibacterial evaluation, MIC by broth dilution
Assay type in all cases: cell-based
Enterococcus sp. = settings: broth dilution, 18 hours at 35° C.
Outline: (§1)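 Broth dilution per NCCLS M7-A2 in Mueller-Hinton II medium, inoculum 5×10^5 CFU/mL, antibiotic range 64-0.06 μg/mL. MIC taken as lowest concentration inhibiting growth; Gram-positive panel includes recent clinical isolates resistant to methicillin, penicillin and/or vancomycin.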

Staphylococcus sp. = settings: broth dilution, 18 hours at 35° C.; for MIC Staphylococcus aureus (GC 1131): strain GC 1131
Outline: as §1

Streptococcus sp. = settings: broth dilution, 18 hours at 35° C.
Outline: as §1

Escherichia coli = settings: 18 hours at 35° C.

CC(c1ccccc1)C1NC(=O)CNC(=O)C(CO)NC(=O)C(CC2CNC(=N)N2C2OC(CO)C(O)C(O)C2O)NC(=O)C(CC2CNC(=N)N2)NC(=O)C(Cc2ccc(OC3OC(CO)C(OC4OC5COC(c6ccc(OCc7ccccc7)cc6)OC5C(O)C4O)C(O)C3O)cc2)NC1=O (centres unmarked) [Example 191]
MIC Enterococcus avium (GC 4558) (Enterococcus sp.): 4 µg/mL (≈ 2.74 µM) | MIC Enterococcus faecalis (ATCC 29212) (Enterococcus sp.): 16 µg/mL (≈ 11 µM) | MIC Enterococcus faecalis (GC 2242) (Enterococcus sp.): 8 µg/mL (≈ 5.49 µM) | MIC Enterococcus faecalis (GC 2691) (Enterococcus sp.): 8 µg/mL (≈ 5.49 µM) | MIC Enterococcus faecalis (GC 3059) (Enterococcus sp.): 8 µg/mL (≈ 5.49 µM) | MIC Enterococcus faecalis (GC 4552) (Enterococcus sp.): 16 µg/mL (≈ 11 µM) | MIC Enterococcus faecalis (GC 4553) (Enterococcus sp.): 8 µg/mL (≈ 5.49 µM) | MIC Enterococcus faecalis (GC 4554) (Enterococcus sp.): 16 µg/mL (≈ 11 µM) | MIC Enterococcus faecalis (GC 6189) (Enterococcus sp.): 8 µg/mL (≈ 5.49 µM) | MIC Enterococcus faecium (GC 2243) (Enterococcus sp.): 8 µg/mL (≈ 5.49 µM) | MIC Enterococcus faecium (GC 4556) (Enterococcus sp.): 8 µg/mL (≈ 5.49 µM) | MIC Enterococcus faecium (GC 4557) (Enterococcus sp.): 4 µg/mL (≈ 2.74 µM) | MIC Enterococcus faecalis (ATCC 29212) (Enterococcus sp.; inoculum 5×10^5 CFU/mL, strain ATCC 29212): 16 µg/mL (≈ 11 µM) | MIC Enterococcus faecalis (GC 2242) (Enterococcus sp.; inoculum 5×10^5 CFU/mL, strain GC 2242): 8 µg/mL (≈ 5.49 µM) | MIC Enterococcus faecium (GC 2243) (Enterococcus sp.; inoculum 5×10^5 CFU/mL, strain GC 2243): 8 µg/mL (≈ 5.49 µM) | MIC Enterococcus faecalis (GC 2691) (Enterococcus sp.; inoculum 5×10^5 CFU/mL, strain GC 2691): 8 µg/mL (≈ 5.49 µM) | MIC Enterococcus faecalis (GC 3059) (Enterococcus sp.; inoculum 5×10^5 CFU/mL, strain GC 3059): 8 µg/mL (≈ 5.49 µM) | MIC Enterococcus faecalis (GC 4552) (Enterococcus sp.; inoculum 5×10^5 CFU/mL, strain GC 4552): 16 µg/mL (≈ 11 µM) | MIC Enterococcus faecalis (GC 4553) (Enterococcus sp.; inoculum 5×10^5 CFU/mL, strain GC 4553): 8 µg/mL (≈ 5.49 µM) | MIC Enterococcus faecalis (GC 4554) (Enterococcus sp.; inoculum 5×10^5 CFU/mL, strain GC 4554): 16 µg/mL (≈ 11 µM) | MIC Enterococcus faecium (GC 4556) (Enterococcus sp.; inoculum 5×10^5 CFU/mL, strain GC 4556): 8 µg/mL (≈ 5.49 µM) | MIC Enterococcus faecium (GC 4557) (Enterococcus sp.; inoculum 5×10^5 CFU/mL, strain GC 4557): 4 µg/mL (≈ 2.74 µM) | MIC Enterococcus avium (GC 4558) (Enterococcus sp.; inoculum 5×10^5 CFU/mL, strain GC 4558): 4 µg/mL (≈ 2.74 µM) | MIC Enterococcus faecalis (GC 6189) (Enterococcus sp.; inoculum 5×10^5 CFU/mL, strain GC 6189): 8 µg/mL (≈ 5.49 µM) | MIC Staphylococcus aureus (GC 1131) (Staphylococcus sp.; inoculum 5×10^5 CFU/mL): 8 µg/mL (≈ 5.49 µM) | MIC Staphylococcus aureus (ATCC 29213) (Staphylococcus sp.; strain ATCC 29213): 4 µg/mL (≈ 2.74 µM) | MIC Staphylococcus aureus (GC 1131) (Staphylococcus sp.): 8 µg/mL (≈ 5.49 µM) | MIC Staphylococcus aureus (GC 3051) (Staphylococcus sp.; strain GC 3051): 8 µg/mL (≈ 5.49 µM) | MIC Staphylococcus aureus (GC 3053) (Staphylococcus sp.; strain GC 3053): 8 µg/mL (≈ 5.49 µM) | MIC Staphylococcus aureus (GC 4541) (Staphylococcus sp.; strain GC 4541): 4 µg/mL (≈ 2.74 µM) | MIC Staphylococcus aureus (GC 4542) (Staphylococcus sp.; strain GC 4542): 4 µg/mL (≈ 2.74 µM) | MIC Staphylococcus aureus-SMITH (GC 4543) (Staphylococcus sp.; strain GC 4543): 4 µg/mL (≈ 2.74 µM) | MIC Staphylococcus aureus (GC 4544) (Staphylococcus sp.; strain GC 4544): 8 µg/mL (≈ 5.49 µM) | MIC Staphylococcus aureus (GC 4545) (Staphylococcus sp.; strain GC 4545): 4 µg/mL (≈ 2.74 µM) | MIC Staphylococcus haemolyticus (GC 4546) (Staphylococcus sp.; strain GC 4546): 4 µg/mL (≈ 2.74 µM) | MIC Coagulase Negative Staphylococcus (GC 4547) (Staphylococcus sp.; strain GC 4547): 8 µg/mL (≈ 5.49 µM) | MIC Coagulase Negative Staphylococcus (GC 4548) (Staphylococcus sp.; strain GC 4548): 4 µg/mL (≈ 2.74 µM) | MIC Coagulase Negative Staphylococcus (GC 4549) (Staphylococcus sp.; strain GC 4549): 4 µg/mL (≈ 2.74 µM) | MIC Coagulase Negative Staphylococcus (GC 4551) (Staphylococcus sp.; strain GC 4551): 4 µg/mL (≈ 2.74 µM) | MIC Coagulase Negative Staphylococcus (GC 6257) (Staphylococcus sp.; strain GC 6257): 4 µg/mL (≈ 2.74 µM) | MIC Streptococcus agalactiae (GC 4564) (Streptococcus sp.): 2 µg/mL (≈ 1.37 µM) | MIC Streptococcus pneumoniae (ATCC 6301) (Streptococcus sp.): 1 µg/mL (≈ 0.686 µM) | MIC Streptococcus pneumoniae (GC 1894) (Streptococcus sp.): 0.25 µg/mL (≈ 0.172 µM) | MIC Streptococcus pneumoniae (GC 4565) (Streptococcus sp.): 2 µg/mL (≈ 1.37 µM) | MIC Streptococcus pyogenes (GC 4563) (Streptococcus sp.): 2 µg/mL (≈ 1.37 µM) | MIC Streptococcus pneumoniae (ATCC 6301) (Streptococcus sp.; inoculum 5×10^5 CFU/mL, strain ATCC 6301): 1 µg/mL (≈ 0.686 µM) | MIC Streptococcus pneumoniae (GC 1894) (Streptococcus sp.; inoculum 5×10^5 CFU/mL, strain GC 1894): 0.25 µg/mL (≈ 0.172 µM) | MIC Streptococcus pyogenes (GC 4563) (Streptococcus sp.; inoculum 5×10^5 CFU/mL, strain GC 4563): 2 µg/mL (≈ 1.37 µM) | MIC Streptococcus agalactiae (GC 4564) (Streptococcus sp.; inoculum 5×10^5 CFU/mL, strain GC 4564): 2 µg/mL (≈ 1.37 µM) | MIC Streptococcus pneumoniae (GC 4565) (Streptococcus sp.; inoculum 5×10^5 CFU/mL, strain GC 4565): 2 µg/mL (≈ 1.37 µM) | MIC Escherichia coli (ATCC 25922) (Escherichia coli): >64 µg/mL | MIC Escherichia coli (GC 4559) (Escherichia coli): 64 µg/mL (≈ 43.9 µM) | MIC Escherichia coli (GC 4560) (Escherichia coli): 8 µg/mL (≈ 5.49 µM)
